Tests used:
[1] = target: T1, HDAC6 human recombinant (Homo sapiens, UniProt Q9UBN7); experiment: HDAC6 enzyme inhibition, fluorimetric assay; format: biochemical; details: for IC50: 0.1-1000 nM tested, 37° C. 60 minutes, fluorescence, read-out: HDAC6 (μM), ability to inhibit the activity of HDAC enzyme; for selectivity for HDAC1/6 enzymes (HDAC1/HDAC6): ratio of HDAC1 to HDAC6 values
T1 construct: purchased Calbiochem 382180
T1 sequence (Q9UBN7 1-1215): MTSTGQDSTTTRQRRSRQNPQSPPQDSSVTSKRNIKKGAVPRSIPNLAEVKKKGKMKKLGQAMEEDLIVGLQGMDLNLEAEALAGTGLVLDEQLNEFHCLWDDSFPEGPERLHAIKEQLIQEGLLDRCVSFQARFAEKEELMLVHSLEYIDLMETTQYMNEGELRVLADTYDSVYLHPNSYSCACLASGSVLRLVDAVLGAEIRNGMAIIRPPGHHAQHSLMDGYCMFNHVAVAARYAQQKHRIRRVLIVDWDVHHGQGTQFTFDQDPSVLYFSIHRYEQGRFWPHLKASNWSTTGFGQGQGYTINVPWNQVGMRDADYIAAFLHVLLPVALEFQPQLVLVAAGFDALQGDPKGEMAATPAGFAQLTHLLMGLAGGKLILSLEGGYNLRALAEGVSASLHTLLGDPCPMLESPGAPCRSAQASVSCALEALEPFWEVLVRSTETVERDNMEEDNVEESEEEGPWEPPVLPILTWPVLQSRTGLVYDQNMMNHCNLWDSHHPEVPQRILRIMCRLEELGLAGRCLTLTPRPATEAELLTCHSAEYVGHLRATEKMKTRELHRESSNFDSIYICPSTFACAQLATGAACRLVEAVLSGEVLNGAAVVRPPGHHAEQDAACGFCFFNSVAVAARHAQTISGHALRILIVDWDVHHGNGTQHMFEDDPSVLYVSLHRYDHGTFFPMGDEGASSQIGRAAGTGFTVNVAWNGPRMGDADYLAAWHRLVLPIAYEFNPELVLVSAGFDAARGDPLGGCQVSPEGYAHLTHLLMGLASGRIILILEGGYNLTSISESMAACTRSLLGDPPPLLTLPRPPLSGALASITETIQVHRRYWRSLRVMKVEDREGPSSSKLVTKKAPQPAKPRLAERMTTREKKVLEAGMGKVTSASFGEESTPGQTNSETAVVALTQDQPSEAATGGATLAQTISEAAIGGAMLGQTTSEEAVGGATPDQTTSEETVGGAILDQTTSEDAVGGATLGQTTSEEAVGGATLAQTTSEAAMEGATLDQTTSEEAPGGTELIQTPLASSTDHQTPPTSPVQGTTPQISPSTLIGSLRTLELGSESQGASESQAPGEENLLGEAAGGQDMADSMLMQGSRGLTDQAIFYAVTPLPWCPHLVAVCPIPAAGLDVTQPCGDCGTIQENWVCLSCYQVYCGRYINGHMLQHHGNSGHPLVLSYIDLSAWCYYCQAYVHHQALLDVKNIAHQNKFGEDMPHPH
Procedure: (§1) Using a HDAC1 fluorimetric drug discovery assay kit (Enzolifesciences: BML-AK511) and a HDAC6 human recombinant (Calbiochem: 382180), the HDAC enzyme inhibitory abilities of test compounds were measured. It was treated with 100, 1000 and 10000 nM concentrations for HDAC1 assay, and 0.1, 1, 10, 100 and 1000 nM concentrations for HDAC6 assay. It was allowed to react at 37° C. for 60 minutes, and then was treated with a developer and allowed to react at 37° C. for 30 minutes, after which the fluorescence intensity (Ex 390 nm; Em 460 nm) was measured using FlexStatin3 (Molecular Device).

[2] = target: T2, HDAC1 (Homo sapiens, UniProt Q13547); experiment: HDAC1 enzyme inhibition, HDAC1 fluorimetric drug discovery assay kit; format: biochemical; details: 100-10000 nM tested, 37° C. 60 minutes, fluorescence; read-out: HDAC1 (μM), ability to inhibit the activity of HDAC enzyme
T2 construct: purchased Enzolifesciences BML-AK511
Procedure: as §1

[3] = tested on: adjuvant-induced arthritis models; experiment: Adjuvant-induced arthritis model, clinical score; format: in vivo; details: Lewis rat, vehicle 9-11
Procedure: […] of complete Freund's adjuvant (Chondrex) was injected intradermally into the tail of each Lewis rat to induce animal models. From one day before induction, the rats were divided into groups based on body weight, and the test compound was administered orally to the rats at various doses once a day, followed by evaluation.
Clinical score and body weight were measured twice a week from the day of first administration of the test compound. The clinical score was recorded as 0-4 points, and the total clinical score was evaluated after observing the foot of each rat (0: normal; and 16: the most severe edema).
The medicinal effect of the test compound in the arthritis models was evaluated based on the degree of joint edema, and a higher clinical score indicates a more severe degree of edema.

T2 sequence (Q13547 whole entry): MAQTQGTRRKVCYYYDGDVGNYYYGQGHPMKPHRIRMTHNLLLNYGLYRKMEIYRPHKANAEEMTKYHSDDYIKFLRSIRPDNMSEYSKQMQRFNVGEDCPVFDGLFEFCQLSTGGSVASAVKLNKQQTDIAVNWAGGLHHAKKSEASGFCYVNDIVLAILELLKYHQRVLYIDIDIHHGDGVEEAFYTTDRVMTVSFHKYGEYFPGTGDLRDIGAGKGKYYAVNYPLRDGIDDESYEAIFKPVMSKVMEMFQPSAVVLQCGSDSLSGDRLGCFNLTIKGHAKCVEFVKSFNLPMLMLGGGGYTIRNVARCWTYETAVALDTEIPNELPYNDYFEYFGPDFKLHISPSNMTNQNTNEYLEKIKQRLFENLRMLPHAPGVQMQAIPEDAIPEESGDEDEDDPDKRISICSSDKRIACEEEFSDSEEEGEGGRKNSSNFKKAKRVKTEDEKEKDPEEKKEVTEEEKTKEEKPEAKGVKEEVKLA

Compound | IC50 [1] [µM] | selectivity for HDAC1/6 enzymes (HDAC1/HDAC6) [1] [fold] | IC50 [2] [µM] | clinical score (joint edema, 0: normal; 16: the most severe edema) ([3]; 1 mg/kg orally once a day) | clinical score (joint edema, 0: normal; 16: the most severe edema) ([3]; 10 mg/kg orally once a day) | clinical score (joint edema, 0: normal; 16: the most severe edema) ([3]; 50 mg/kg orally once a day)
O=C(CCCCCCNC(=O)N1CCN(C(c2ccccc2)c2ccccc2)CC1)NO [Compound 1102, 4-benzhydryl-N-(7-(hydroxyamino)-7-oxoheptyl)piperazine-1-carboxamide] | 0.004 | 960 | 3.84 | 6-8 | 4-6 | 1-3
O=C(CCCCCCNC(=O)N1CCC(C(O)(c2ccccc2)c2ccccc2)CC1)NO [Compound 1124, N-(7-(hydroxyamino)-7-oxoheptyl)-4-(hydroxydiphenylmethyl)piperidine-1-carboxamide] | 0.024 | 170 | 4.09 |  |  | 
C[C@@H]1CN(C(c2ccccc2)c2ccccc2)C[C@H](C)N1C(=O)NCCCCCCC(=O)NO [Compound 1188, (2S,6R)-4-benzhydryl-N-(7-(hydroxyamino)-7-oxoheptyl)-2,6-dimethylpiperazine-1-carboxyamide] | 0.014 |  | 1.68 |  |  | 
C[C@@H]1CN(C(c2ccccc2)c2ccccc2)CCN1C(=O)NCCCCCCC(=O)NO [Compound 1189, (R)-4-benzhydryl-N-(7-(hydroxyamino)-7-oxoheptyl)-2-methylpiperazine-1-carboxamide] | 0.025 |  | 0.84 |  |  | 
C[C@H]1CN(C(c2ccccc2)c2ccccc2)CCN1C(=O)NCCCCCCC(=O)NO [Compound 1190, (S)-4-benzhydryl-N-(7-(hydroxyamino)-7-oxoheptyl)-2-methylpiperazine-1-carboxamide] | 0.065 |  | 1.34 |  |  | 
O=C(CCCCCCNC(=O)C1CCN(C(c2ccccc2)c2ccccc2)CC1)NO [Compound 1209, 1-benzhydryl-N-(7-(hydroxyamino)-7-oxoheptyl)piperidine-4-carboxamide] | 0.006 | 193 | 1.16 |  |  | 
O=C(CCCCCCNS(=O)(=O)N1CCC(C(O)(c2ccccc2)c2ccccc2)CC1)NO [Compound 1210, N-hydroxy-7-((4-(hydroxydiphenylmethyl)piperidine)-1-sulfonamido)heptanamide] | 0.07 |  | 1.19 |  |  | 
CN(CCCCCCC(=O)NO)C(=O)N1CCN(C(c2ccccc2)c2ccccc2)CC1 [Compound 1213, 4-benzhydryl-N-(7-(hydroxyamino)-7-oxoheptyl)-N-methylpiperazine-1-carboxamide] | 0.044 |  | 0.704 |  |  | 
O=C(CCCCCCNC(=O)N1CCC(N(c2ccccc2)c2ccccc2)CC1)NO [Compound 1221, 4-(diphenylamino)-N-(7-(hydroxyamino)-7-oxoheptyl)piperidine-1-carboxamide] | 0.079 |  | 1.88 |  |  | 
O=C(CCCCCCNC(=O)N1CCN(C(c2ccccn2)c2ccccn2)CC1)NO [Compound 1222] | 0.085 |  | 0.71 |  |  | 
O=C(CCCCCCNC(=O)N1CCN(C(c2ccc(F)cc2)c2ccc(F)cc2)CC1)NO [Compound 1223] | 0.073 |  | 1.16 |  |  | 
O=C(CCCCCCNC(=O)N1CCN(C(c2ccc(Cl)cc2)c2ccc(Cl)cc2)CC1)NO [Compound 1224] | 0.087 |  | 3.96 |  |  | 
O=C(CCCCCCCNC(=O)N1CCN(C(c2ccccc2)c2ccccc2)CC1)NO [Compound 1240, 4-benzhydryl-N-(8-(hydroxyamino)-8-oxoethyl)piperazine-1-carboxamide] | 0.07 |  | 0.41 |  |  | 
CC(c1ccccc1)N1CCN(C(=O)NCCCCCCC(=O)NO)CC1 (stereo not drawn) [Compound 1241, N-(7-(hydroxyamino)-7-oxoheptyl)-4-(1-phenylethyl)piperazine-1-carboxamide] | 0.025 |  | 0.72 |  |  | 
CC(c1ccccc1)N1CCC(C(=O)NCCCCCCC(=O)NO)CC1 (stereo not drawn) [Compound 1243, N-(7-(hydroxyamino)-7-oxoheptyl)-1-(1-phenylethyl)piperidine-4-carboxamide] | 0.017 |  | 0.54 |  |  | 
CN(CCCCCCC(=O)NO)C(=O)C1CCN(C(c2ccccc2)c2ccccc2)CC1 [Compound 1256, 1-benzhydryl-N-(7-(hydroxyamino)-7-oxoheptyl)-N-methylpiperidine-4-carboxamide] | 0.038 |  | 0.08 |  |  | 
O=C(CCCCCNC(=O)N1CCN(C(c2ccccc2)c2ccccc2)CC1)NO [Compound 1257, 4-benzhydryl-N-(6-(hydroxyamino)-6-oxohexyl)piperazine-1-carboxamide] | 0.063 |  | 0.159 |  |  | 
N-(7-(hydroxyamino)-7-oxoheptyl)-4-(phenyl(4-(trifluoromethyl)phenyl)amino)piperidine-1-carboxamie [Compound 1726] | 0.228 |  | 3.7 |  |  | 

Now from value to compound, other results behind:

IC50 [1] [µM] | selectivity for HDAC1/6 enzymes (HDAC1/HDAC6) [1] [fold] | IC50 [2] [µM] | Compound | clinical score (joint edema, 0: normal; 16: the most severe edema) ([3]; 1 mg/kg orally once a day) | clinical score (joint edema, 0: normal; 16: the most severe edema) ([3]; 10 mg/kg orally once a day) | clinical score (joint edema, 0: normal; 16: the most severe edema) ([3]; 50 mg/kg orally once a day)
0.456 |  | 0.236 | O=C(CCCCCNC(=O)C1CCN(C(c2ccccc2)c2ccccc2)CC1)NO [Compound 1316, 1-benzhydryl-N-(6-(hydroxyamino)-6-oxohexyl)piperidine-4-carboxamide] |  |  | 
0.336 |  | 0.023 | O=C(CCCCCCCNC(=O)C1CCN(C(c2ccccc2)c2ccccc2)CC1)NO [Compound 1317] |  |  | 
0.019 |  | 0.466 | O=C(CCCCCCNC(=O)N1CCN(C(c2ccccc2F)c2ccccc2F)CC1)NO [Compound 1647, 4-(bis(2-fluorophenyl)methyl)-N-(7-(hydroxyamino)-7-oxoheptyl)piperazine-1-carboxamide] |  |  | 
0.029 |  | 0.729 | O=C(CCCCCCNC(=O)N1CCN(C(c2cccc(F)c2)c2cccc(F)c2)CC1)NO [Compound 1648] |  |  | 
0.033 |  | 0.463 | O=C(CCCCCCNC(=O)N1CCC(C(F)(c2ccccc2)c2ccccc2)CC1)NO [Compound 1649, 4-(fluorodiphenylmethyl)-N-(7-(hydroxyamino)-7-oxoheptyl)piperidine-1-carboxamide] |  |  | 
0.116 |  | 1.73 | O=C(CCCCCCNC(=O)N1CCC(N(c2ccccc2)c2cccc(F)c2)CC1)NO [Compound 1719, 4-((3-fluorophenyl)(phenyl)amino)-N-(7-(hydroxyamino)-7-oxoheptyl)piperidine-1-carboxamide] |  |  | 
0.094 |  | 0.886 | O=C(CCCCCCNC(=O)N1CCC(N(c2ccccc2)c2ccc(F)cc2)CC1)NO [Compound 1734, 4-((4-fluorophenyl)(phenyl)amino)-N-(7-(hydroxyamino)-7-oxoheptyl)piperidine-1-carboxamide] |  |  | 
0.201 |  | 0.023 | O=C(CCCCCNC(=O)N1CC2(CCN(C(c3ccccc3)c3ccccc3)CC2)C1)NO [Compound 1763, 7-benzhydryl-N-(6-(hydroxyamino)-6-oxohexyl)-2,7-diazaspiro[3.5]nonane-2-carboxamide] |  |  | 
0.04 |  | 0.236 | O=C(CCCCCCNC(=O)N1CC2(CCN(C(c3ccccc3)c3ccccc3)CC2)C1)NO [Compound 1764, 7-benzhydryl-N-(7-(hydroxyamino)-7-oxoheptyl)-2,7-diazaspiro[3.5]nonane-2-carboxamide] |  |  | 

From patent US11420950B2, “Heterocyclicalkyl derivative compounds as selective histone deacetylase inhibitors and pharmaceutical compositions comprising the same” (Chong Kun Dang Pharmaceutical Corp., priority 2015, dated 2022)
